# Laboratory results: patent US11738072B2, “Tumor vaccine and uses thereof” (WestVac Biopharma Co., Ltd., priority 2017, dated 2023)
# Assays:
# [1] = system: mouse colorectal cancer cell line CT26; assay: Experiment (1): model mice with abdominal metastasis of CT26, treated 9 times; format: in vivo
# Method: Balb/c mice aged 6-8 weeks were raised. The mouse colorectal cancer cell line CT26 cultured to the logarithmic growth phase was prepared into a cell suspension, and mouse abdominal tumor was modeled by intraperitoneal injection. The number of cells injected into each mouse was 2×10^5, and the injection system was 100 μl for each mouse.
# As described in Table 14, the mice that had been successfully modeled were divided into groups as follows: Normal group was not inoculated with tumor cell nor administrated with drugs; untreated group was intraperitoneally inoculated with CT26 cells instead of drugs; NS group was intraperitoneally inoculated with tumor cells and administrated with normal saline. After inoculation of the tumor, mice were intraperitoneally administrated on the 3rd day as follows: 15 μg of plasmid DNA and 75 μg of DOTAP for each mouse in the treatment group of plasmid DNA/DOTAP complex group; i.e. the mass ratio of plasmid DNA to DOTAP was 1:5. After that, they were administrated every three days for a total of 9 times.
# The mice were administrated for 9 times in total and allowed to die naturally. The natural death dates of the mice in each experimental group were recorded, and the body weight and survival time of the mice in each experimental group were counted. The volume of ascites were counted, tumors were removed and weighed.
# CT26 cells [2] = assay: Mitochondrial membrane potential by TMRM, flow cytometry; format: cell-based, mouse; conditions: CT26, 15-24 h
# Method: (1) Inoculation of tumor cells in plates: A549 cells and CT26 cells in the logarithmic growth phase were prepared into a cell suspension respectively, inoculated into a 6-well plate as per 1×10^5 cells/well, 2 ml of medium was added to each well, and cultured overnight in a 5% CO2 incubator at 37° C.
# (2) Different samples added to act on tumor cells: the pMVA-1 plasmid, the DOTAP cationic lipid and the pMVA-1/DOTAP complex were added to the tumor cells cultured in Step (1) respectively, and incubated at 37° C. for 15 h, 18 h, 21 h and 24 h.
# (3) Preparation of TMRM dyeing working fluid (made by Life Technologies): the TMRM mother liquor was diluted with PBS at a ratio of 1:100000 to obtain the TMRM dyeing working fluid. […]
# (5) The tumor cells in Step (4) were collected and treated with different samples for different times, and the tumor cells with mitochondrial membrane potential changes were analyzed by flow cytometry.
# As a potentiometric fluorescence probe, tetramethylrhodamine methyl ester (TMRM) entered the cells and was cleaved by cell lactonase to produce tetramethylrhodamine, indicating strong fluorescence after they had entered mitochondria. […] Therefore, the open state of mitochondrial membrane channel pores can be verified by testing the changes of fluorescence intensity in mitochondria of tumor cells.
# CT26 cells [3] = assay: CT26 cell death test by PI-AnnexinV (fluorescence microscope); format: cell-based, mouse; conditions: CT26, 24 h
# Text: (1) Experimental method: same as 1.
smiles,measurement,setting,value
"CCCCCCCC/C=C\CCCCCCCC(=O)OCC(C[N+](C)(C)C)OC(=O)CCCCCCC/C=C\CCCCCCCC (centres unmarked) [DOTAP, 1,2-dioleoyl-3-trimethylammonium-propane]",average ascites volume,[1]; 15 μg pMVA-1 and/or 75 μg DOTAP ip every 3 days x9,3.11 mL
same,day after inoculation of the tumor cells on which all mice of the group had died,"[1]; 15 μg pMVA-1 and/or 75 μg DOTAP ip every 3 days x9, natural death",39 days
same,average tumor weight,[1]; abdominal tumor weighed after the mice died,8.23 g
same,mitochondrial membrane potential,CT26 cells [2],did not change significantly
same,PI-positive and AnnexinV-positive cells,CT26 cells [3],did not indicate obvious PI uptake and obvious AnnexinV-labeled positive cells
